Our source for the IC50 values is ChEMBL document CHEMBL5543163, “Druglike, 18F-labeled PET Tracers Targeting Fibroblast Activation Protein” (J Med Chem, 2024).

The structures appear in SMILES notation. Bounds are passed on as bounds.

In one test the target is Dipeptidyl peptidase 2 (Homo sapiens, UniProt Q9UHL4). Briefly: Inhibition of DPP2 (unknown origin) using Lys-Ala-pNA as substrate preincubated for 15 mins followed by substrate addition and measured after 15 mins.
The target of a further test is T1, Prolyl endopeptidase FAP (Homo sapiens, UniProt Q12884).
T1 sequence (Q12884 whole entry): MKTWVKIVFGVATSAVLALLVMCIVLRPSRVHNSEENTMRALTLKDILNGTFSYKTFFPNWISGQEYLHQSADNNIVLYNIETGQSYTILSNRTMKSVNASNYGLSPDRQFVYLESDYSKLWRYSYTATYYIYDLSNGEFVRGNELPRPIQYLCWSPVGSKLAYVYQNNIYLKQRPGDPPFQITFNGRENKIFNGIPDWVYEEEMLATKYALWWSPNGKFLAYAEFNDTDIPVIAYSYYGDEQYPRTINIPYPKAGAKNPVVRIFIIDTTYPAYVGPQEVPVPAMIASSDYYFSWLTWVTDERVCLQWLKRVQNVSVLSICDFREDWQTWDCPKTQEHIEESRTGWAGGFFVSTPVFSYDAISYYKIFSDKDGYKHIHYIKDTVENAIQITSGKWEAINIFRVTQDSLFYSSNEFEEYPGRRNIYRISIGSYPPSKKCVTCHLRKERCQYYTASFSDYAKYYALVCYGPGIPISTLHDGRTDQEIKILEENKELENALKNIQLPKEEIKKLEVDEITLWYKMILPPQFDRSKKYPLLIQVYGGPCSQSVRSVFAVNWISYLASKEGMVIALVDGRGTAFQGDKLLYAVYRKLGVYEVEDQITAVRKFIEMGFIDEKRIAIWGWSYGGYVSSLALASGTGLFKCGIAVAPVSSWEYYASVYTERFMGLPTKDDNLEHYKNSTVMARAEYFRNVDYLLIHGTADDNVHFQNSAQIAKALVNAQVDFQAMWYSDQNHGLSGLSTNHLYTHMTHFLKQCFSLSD
Briefly: Inhibition of FAP (unknown origin) using Z-Gly-Pro-7-amino-4-methylcoumarine as fluorogenic substrate preincubated for 15 mins followed by substrate addition and measured after 15 mins.

In the next test the target is Dipeptidyl peptidase 4 (Homo sapiens, UniProt P27487). The experiment in a line: Inhibition of DPP4 (unknown origin) using Ala-Pro-paranitroanilide as chromogenic substrate preincubated for 15 mins followed by substrate addition and measured after 15 mins.
A further test has as its target T2, Prolyl endopeptidase (Homo sapiens, UniProt P48147).
T2 sequence (P48147 whole entry): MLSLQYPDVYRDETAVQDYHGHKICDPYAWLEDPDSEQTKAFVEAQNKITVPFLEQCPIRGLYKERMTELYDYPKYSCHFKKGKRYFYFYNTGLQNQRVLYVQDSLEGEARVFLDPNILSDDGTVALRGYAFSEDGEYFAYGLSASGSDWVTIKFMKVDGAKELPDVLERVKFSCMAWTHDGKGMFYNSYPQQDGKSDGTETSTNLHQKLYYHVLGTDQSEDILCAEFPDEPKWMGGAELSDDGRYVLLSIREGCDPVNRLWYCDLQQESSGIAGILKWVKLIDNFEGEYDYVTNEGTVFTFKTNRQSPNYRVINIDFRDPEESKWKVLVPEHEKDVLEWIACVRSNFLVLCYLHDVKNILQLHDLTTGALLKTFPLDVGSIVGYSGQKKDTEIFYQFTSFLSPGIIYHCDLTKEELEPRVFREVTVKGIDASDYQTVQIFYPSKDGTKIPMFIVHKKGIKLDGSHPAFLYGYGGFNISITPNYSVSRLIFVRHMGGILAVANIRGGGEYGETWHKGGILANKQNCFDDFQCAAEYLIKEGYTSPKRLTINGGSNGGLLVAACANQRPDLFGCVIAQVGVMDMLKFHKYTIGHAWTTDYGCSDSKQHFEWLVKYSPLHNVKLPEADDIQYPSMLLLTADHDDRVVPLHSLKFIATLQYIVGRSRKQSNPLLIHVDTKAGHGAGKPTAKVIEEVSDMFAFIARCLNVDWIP
The experiment in a line: Inhibition of PREP (unknown origin) using N-succinyl-Gly-Pro-AMC as substrate preincubated for 15 mins followed by substrate addition and measured after 15 mins.

The next test concerns the target Dipeptidyl peptidase 9 (Homo sapiens, UniProt Q86TI2). Briefly: Inhibition of DPP9 (unknown origin) using Ala-Pro-paranitroanilide as chromogenic substrate preincubated for 15 mins followed by substrate addition and measured after 15 mins.
In a further test the target is Dipeptidyl peptidase 8 (Homo sapiens, UniProt Q6V1X1). The experiment in a line: Inhibition of DPP8 (unknown origin) using Ala-Pro-paranitroanilide as chromogenic substrate preincubated for 15 mins followed by substrate addition and measured after 15 mins.
Sequence of Dipeptidyl peptidase 8 (Q6V1X1 whole entry): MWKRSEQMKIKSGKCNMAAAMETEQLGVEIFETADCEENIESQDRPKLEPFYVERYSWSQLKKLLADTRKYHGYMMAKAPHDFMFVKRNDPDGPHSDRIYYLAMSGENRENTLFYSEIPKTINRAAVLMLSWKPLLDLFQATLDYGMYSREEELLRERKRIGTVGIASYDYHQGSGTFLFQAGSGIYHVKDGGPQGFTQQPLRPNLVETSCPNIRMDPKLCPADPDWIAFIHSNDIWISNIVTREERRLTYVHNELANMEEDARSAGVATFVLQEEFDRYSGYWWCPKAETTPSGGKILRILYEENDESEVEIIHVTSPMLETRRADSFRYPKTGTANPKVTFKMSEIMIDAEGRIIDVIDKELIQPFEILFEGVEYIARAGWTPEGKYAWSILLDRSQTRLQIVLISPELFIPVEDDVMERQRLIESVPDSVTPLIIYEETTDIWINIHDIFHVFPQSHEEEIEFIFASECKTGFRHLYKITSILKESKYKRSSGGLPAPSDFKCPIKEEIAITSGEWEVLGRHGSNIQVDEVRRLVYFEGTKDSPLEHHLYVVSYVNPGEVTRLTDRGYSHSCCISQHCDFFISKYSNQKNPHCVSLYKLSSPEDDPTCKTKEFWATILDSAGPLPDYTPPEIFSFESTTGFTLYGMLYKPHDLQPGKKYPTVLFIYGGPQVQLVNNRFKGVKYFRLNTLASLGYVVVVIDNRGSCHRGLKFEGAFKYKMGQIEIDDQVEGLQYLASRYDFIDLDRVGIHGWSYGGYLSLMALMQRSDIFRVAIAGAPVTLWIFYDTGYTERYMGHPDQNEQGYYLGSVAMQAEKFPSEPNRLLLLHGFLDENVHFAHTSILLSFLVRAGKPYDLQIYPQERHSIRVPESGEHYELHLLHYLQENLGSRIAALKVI

Sequence of Dipeptidyl peptidase 4 (P27487 whole entry): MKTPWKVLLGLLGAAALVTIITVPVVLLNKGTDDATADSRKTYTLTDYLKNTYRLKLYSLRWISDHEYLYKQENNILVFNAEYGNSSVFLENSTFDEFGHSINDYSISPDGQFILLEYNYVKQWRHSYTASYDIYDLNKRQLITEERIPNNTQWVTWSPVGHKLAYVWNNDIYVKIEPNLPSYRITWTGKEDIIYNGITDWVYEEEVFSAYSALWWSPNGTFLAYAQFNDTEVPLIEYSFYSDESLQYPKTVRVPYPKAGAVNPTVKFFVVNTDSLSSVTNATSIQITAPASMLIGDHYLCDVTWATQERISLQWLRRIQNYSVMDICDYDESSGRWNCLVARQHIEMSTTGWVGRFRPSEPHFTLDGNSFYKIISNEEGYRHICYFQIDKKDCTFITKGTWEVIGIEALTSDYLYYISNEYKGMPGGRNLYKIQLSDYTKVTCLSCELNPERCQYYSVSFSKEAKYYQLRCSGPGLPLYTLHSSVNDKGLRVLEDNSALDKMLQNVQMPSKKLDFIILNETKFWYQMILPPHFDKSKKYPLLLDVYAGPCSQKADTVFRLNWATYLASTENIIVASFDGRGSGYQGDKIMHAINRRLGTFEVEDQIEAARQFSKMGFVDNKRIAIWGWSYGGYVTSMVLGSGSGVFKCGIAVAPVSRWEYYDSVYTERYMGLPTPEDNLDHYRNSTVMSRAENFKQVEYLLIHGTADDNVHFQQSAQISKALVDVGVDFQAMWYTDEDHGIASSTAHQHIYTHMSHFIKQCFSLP
Sequence of Dipeptidyl peptidase 9 (Q86TI2 whole entry): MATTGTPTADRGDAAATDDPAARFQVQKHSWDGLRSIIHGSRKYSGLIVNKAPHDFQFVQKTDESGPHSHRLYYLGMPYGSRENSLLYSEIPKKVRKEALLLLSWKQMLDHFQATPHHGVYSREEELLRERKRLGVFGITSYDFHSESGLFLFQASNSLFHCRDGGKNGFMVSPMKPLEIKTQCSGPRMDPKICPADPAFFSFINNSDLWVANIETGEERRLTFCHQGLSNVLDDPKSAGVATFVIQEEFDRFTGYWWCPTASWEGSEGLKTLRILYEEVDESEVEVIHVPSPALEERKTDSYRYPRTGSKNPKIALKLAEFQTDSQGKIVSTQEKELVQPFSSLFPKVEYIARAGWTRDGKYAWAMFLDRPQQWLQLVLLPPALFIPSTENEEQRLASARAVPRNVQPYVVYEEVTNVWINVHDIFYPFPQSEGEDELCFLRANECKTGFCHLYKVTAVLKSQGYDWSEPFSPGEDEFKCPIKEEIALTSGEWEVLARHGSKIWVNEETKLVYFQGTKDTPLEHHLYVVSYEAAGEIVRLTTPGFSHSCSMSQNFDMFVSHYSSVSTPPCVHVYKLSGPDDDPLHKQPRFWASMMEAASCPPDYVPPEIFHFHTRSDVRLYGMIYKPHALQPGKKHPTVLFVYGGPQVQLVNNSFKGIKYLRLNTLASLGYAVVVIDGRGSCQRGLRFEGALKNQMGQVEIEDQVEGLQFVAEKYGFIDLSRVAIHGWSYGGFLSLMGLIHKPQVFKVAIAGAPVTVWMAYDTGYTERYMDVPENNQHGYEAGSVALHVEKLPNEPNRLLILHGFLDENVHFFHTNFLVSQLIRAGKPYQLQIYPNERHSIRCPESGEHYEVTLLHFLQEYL

The IC50 is the midpoint of a concentration-inhibition curve. For the compound `N#C[C@@H]1CC(F)(F)CN1C(=O)CNC(=O)c1ccnc2ccc(OCC(O)CF)cc12` (stereo not given in full), the IC50 at Dipeptidyl peptidase 2 is more than 10 µM; at Prolyl endopeptidase FAP it was 0.00437 µM; at Dipeptidyl peptidase 4 it was more than 10 µM; at Prolyl endopeptidase, more than 10 µM; at Dipeptidyl peptidase 9 it was more than 10 µM; on Dipeptidyl peptidase 8 it was more than 10 µM.

For the compound `COC(CF)COc1ccc2nccc(C(=O)NCC(=O)N3CC(F)(F)C[C@H]3C#N)c2c1` (stereo not given in full), the IC50 at Dipeptidyl peptidase 2 was more than 10 µM; against Prolyl endopeptidase FAP, 0.0014 µM; at Dipeptidyl peptidase 4 it was more than 10 µM; against Prolyl endopeptidase it was more than 10 µM; at Dipeptidyl peptidase 9, 1.6 µM; against Dipeptidyl peptidase 8, 5.8 µM.

Turning to `CC1(C)O[C@@H](CF)[C@H](COc2ccc3nccc(C(=O)NCC(=O)N4CC(F)(F)C[C@H]4C#N)c3c2)O1`, the concentration for half-maximal inhibition (IC50) against Dipeptidyl peptidase 2 is more than 10 µM; on Prolyl endopeptidase FAP it was 0.00046 µM; at Dipeptidyl peptidase 4, more than 10 µM; against Prolyl endopeptidase it was more than 10 µM; against Dipeptidyl peptidase 9, more than 10 µM; on Dipeptidyl peptidase 8, more than 10 µM.

As for `N#C[C@@H]1CC(F)(F)CN1C(=O)CNC(=O)c1ccnc2ccc(OC[C@H](O)[C@@H](O)CF)cc12`, the IC50 on Dipeptidyl peptidase 2 is more than 10 µM; on Prolyl endopeptidase FAP, 0.00177 µM; against Dipeptidyl peptidase 4, more than 10 µM; against Prolyl endopeptidase it was more than 10 µM; against Dipeptidyl peptidase 9 it was more than 10 µM; against Dipeptidyl peptidase 8, more than 10 µM.

With `C[N+](C)(CF)CCCOc1ccc2nccc(C(=O)NCC(=O)N3CC(F)(F)C[C@H]3C#N)c2c1`, on Dipeptidyl peptidase 2, the IC50 was more than 10 µM.
